Measurements taken from ChEMBL document CHEMBL3621190, “Fused Morphlinopyrimidines and Methods of Use Thereof” (ACS Med Chem Lett, 2015).

Target: Gamma-secretase
Experiment: Inhibition of gamma-secretase in human H4 cells expressing human wild type […] cDNA assessed as reduction in amyloid beta peptides incubated for 16 to 18 hrs by ELISA method
Format: cell-based

SMILES	IC50
Clc1cc(N2CCC(Nc3ncc4c(n3)N(c3ccccc3)CCO4)CC2)ccn1	54.3 nM
COc1cc(N2CCC(Nc3ncc4c(n3)N(c3cc(F)c(F)c(F)c3)CCO4)CC2)ccn1	56 nM
Cc1ccccc1N1CCOc2cnc(NC3CCN(c4ccnc(Cl)c4)CC3)nc21	90 nM
COc1cc(N2CCC(Nc3ncc4c(n3)N(c3ccccc3)CCO4)CC2)ccn1	25.2 nM
COc1cc(N2CCC(Nc3ncc4c(n3)N(c3ccc(Cl)cc3)CCO4)CC2)ccn1	25.4 nM

Further lines, results first:

IC50	SMILES
54.8 nM	COc1cc(N2CCC(Nc3ncc4c(n3)N(c3ccccc3Cl)CCO4)CC2)ccn1
72.4 nM	COc1cc(N2CCC(Nc3ncc4c(n3)N(c3ccc(F)cc3F)CCO4)CC2)ccn1
25.6 nM	COc1cc(N2CCC(Nc3ncc4c(n3)N(c3cc(F)cc(F)c3)CCO4)CC2)ccn1
11.9 nM	COc1cc(N2CCC(Nc3ncc4c(n3)N(c3ccc(F)cc3C(F)(F)F)CCO4)CC2)ccn1
30.5 nM	COc1cc(N2CCC(Nc3ncc4c(n3)N(c3ccc(F)cc3)CCO4)CC2)ccn1
20.8 nM	COc1cc(N2CCC(Nc3ncc4c(n3)N(c3ccccc3OC(F)(F)F)CCO4)CC2)ccn1
58.5 nM	COc1cc(N2CCC(Nc3ncc4c(n3)N(c3ccccc3C)CCO4)CC2)ccn1
